pIC50: −log10 of the molar value.
What follows are compounds tested against T1, TrkA kinase domain (Homo sapiens, UniProt P04629) (assay: TrkA Kinase Assay (Trk kinase biochemical assay)). Conditions: 33 pM TrkA, 100 nM peptide substrate, 10 µM ATP; 15 minute preincubation; read-out: TrkA WT IC50.
T1 construct: TrkA kinase domain was supplied by SignalChem; purchased SignalChem
Protocol: Example 33: TrkA Kinase Assay Protocol
TrkA kinase domain was supplied by SignalChem. Ulight PolyGT peptide substrate and Europium labeled W1024 antiphosphotyrosine antibody were supplied by Perkin Elmer. Assay buffer contained 50 mM HEPES, 10 mM MgCb, 1 mM EGTA, 2 mM DTT, 0.1 mg/mL BSA, and 0.005% w/v tween 20, pH 7.5. Enzyme dilution buffer was made by supplementing assay buffer with 25% w/v glycerol. Antibody dilution buffer contained 20 mM Tris, 137 mM NaCl, and 0.05% w/v tween 20, pH 8.0. Buffers were prepared at room temperature. Enzyme solutions were made on ice, while other solutions were made at room temperature and all subsequent assay steps were performed at room temperature. The TrkA stock solution (0.1 mg/mL) was diluted 156× in enzyme dilution buffer and then 100× in assay buffer. Five pL/well of enzyme solution was added to the assay plate (Greiner black 384-well nonbinding plate), with buffer containing no enzyme added to negative control wells. Test compounds were serially diluted in DMSO at 300× final assay concentration. One μL of each test compound dilution was mixed with 99 pL assay buffer plus ATP (30 μM) and five pL of each test compound-ATP solution was added to w¾13s containing enzyme. Positive control wells contained enzyme and substrates but no test compounds. After a 15 minute enzyme-test compound preincubation, five pL of substrate diluted in assay buffer was added to all wells. Final assay concentrations were 33 pM TrkA, 100 nM peptide substrate, and […]. After a five minute reaction, five pL of 80 mM EDTA was added, followed five minutes later by five pL two nM antibody solution. The ratio of fluorescence at 665 nm vs. 615 nM in each well was determined using a Tecan Infinite Pro F200 plate reader. For each test compound well, percent inhibition w % s calculated (% inliib. =100-100*(test value-neg. control)/(pos. control-neg. control)). Percent inhibition values were fit to a four parameter logistic to determine ICso values for each test compound.

T1 sequence (P04629 510-781 limits assumed): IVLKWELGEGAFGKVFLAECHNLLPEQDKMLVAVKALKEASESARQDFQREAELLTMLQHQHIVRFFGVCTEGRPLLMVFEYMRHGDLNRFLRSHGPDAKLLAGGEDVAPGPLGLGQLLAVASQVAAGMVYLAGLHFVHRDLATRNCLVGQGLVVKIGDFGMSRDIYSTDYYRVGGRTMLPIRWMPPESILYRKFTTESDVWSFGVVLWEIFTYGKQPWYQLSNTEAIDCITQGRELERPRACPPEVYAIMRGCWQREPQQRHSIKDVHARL

Row | SMILES | pIC50
1 | N#Cc1cncc(-c2cnn(-c3cnn4ccc(N5CCC[C@@H]5c5cc(F)ccc5F)nc34)c2)c1 [I-191] | > 8.00
2 | Fc1ccc(F)c([C@H]2CCCN2c2ccn3ncc(-n4cc(C(F)F)cn4)c3n2)c1 [I-176, (R)-3-(4-(difluor®methyl)-1H-pyrazol-1-yl)-5-(2-(2,5-difluorophenyl)pyrrolidin-˜yl)pyrazolo[1,5-a]pyriniidine] | > 8.00
3 | OC1CCN(c2cnn(-c3cnn4ccc(N5CCC[C@@H]5c5ncccc5F)nc34)c2)C1 (stereo partly drawn) [I-209] | > 8.00
4 | COc1cncc(-c2cnn(-c3cnn4ccc(N5CCC[C@@H]5c5cc(F)ccc5F)nc34)c2)c1 [I-161] | > 8.00
5 | COc1ccc(-c2cnn(-c3cnn4ccc(N[C@H](C)c5cc(F)ccc5F)nc34)c2)cn1 [I-220, (R)—N-(1-(2,5-difluor®phenyl)ethyl)-3-(4-(6-methoxypyridin-3-yl)-1H-pyrazoI-1-yl)pyrazolo[1,5-a]pyrimidin-5-amine] | > 8.00
6 | Fc1ccc(F)c([C@H]2CCCN2c2ccn3ncc(-n4cc(-c5ccc(OC6COC6)nc5)cn4)c3n2)c1 [I-223, (R)-5-(2-(2,5-difluorophenyl)pyrrolidn-1-yl)-3-(4-(6-(oxetan-3-yloxy)pyridin-3-yl)-H-pyrazol-1-yl)pyrazolo[1,5-a]pyrimidine] | > 8.00
7 | Cc1cn(-c2cnn3ccc(N4CCC[C@@H]4c4cc(F)ccc4F)nc23)nc1C [I-150] | > 8.00
8 | COc1ccncc1-c1cnn(-c2cnn3ccc(N4CCC[C@@H]4c4cc(F)ccc4F)nc23)c1 [I-201] | > 8.00
9 | COc1ncccc1-c1cnn(-c2cnn3ccc(N4CCC[C@@H]4c4cc(F)ccc4F)nc23)c1 [I-202] | > 8.00
10 | Cn1cc(-c2cnn(-c3cnn4ccc(N5CCC[C@@H]5c5cc(F)ccc5F)nc34)c2)cn1 [I-158] | > 8.00
11 | Fc1ccc(F)c([C@H]2CCCN2c2ccn3ncc(-n4cc5c(n4)CCOC5)c3n2)c1 [I-183, (R)-2-(5-(2-(2,5-difluorophenyl)pyrrolidin-1-yl)pyrazolo[1,5-a]pyrimidin-3-yl)-2,4,6,7-tetrahydropyrano[4,3-c]pyrazole] | > 8.00
12 | COCCOCc1cnn(-c2cnn3ccc(N4CCC[C@@H]4c4cc(F)ccc4F)nc23)c1 [I-180, (R)-5-(2-(2,5-difluerophenyl)pyrrolidin-1-yl)-3-(4-((2-methoxyethoxy)methyl)-1H-pyrazol-1-yl)pyrazolo[1,5-a]pyrimidine] | > 8.00
13 | Fc1ccc(F)c([C@H]2CCCN2c2ccn3ncc(-n4cc(-c5ccnnc5)cn4)c3n2)c1 [I-199] | > 8.00
14 | Cc1cnn(-c2cnn3ccc(N4CCC[C@@H]4c4nc(N(C)C)ccc4F)nc23)c1 [I-217, (R)-5-fluoro-N,N-dimethyl-6-(1-(3-(4-methyl-1H-pyrazol-1-yl)pyrazolo[1,5-a]pyrimidin-5-yl)pyrrolidin-2-yl)pyridin-2-amine] | > 8.00
15 | Fc1ccc(F)c([C@H]2CCCN2c2ccn3ncc(-n4ncc5c4CCOC5)c3n2)c1 [I-184, (R)-1-(5-(2-(2,5-difluorophenyl)pyrrolidin-1-yl)pyrazolo[1,5-a]pyrimidin-3-yl)-1,4,6,7-tetrahydropyrano[4,3-c]pyrazole] | > 8.00
16 | Cc1cnn(-c2cnn3ccc(N4CCC[C@@H]4c4nc(F)ccc4F)nc23)c1 [I-154, (R)-5-(2-(3,6-difluoropyridin-2-yl)pyrrolidin-1-yl)-3-(4-methyl-1H-pyrazol-1-yl)pyrazolo[1,5-a]pyrimidine] | > 8.00
17 | COc1cc(C)nn1-c1cnn2ccc(N3CCC[C@@H]3c3cc(F)ccc3F)nc12 [I-166] | < 6.30
18 | CC(=O)c1cnn(-c2cnn3ccc(N4CCC[C@@H]4c4cc(F)ccc4F)nc23)c1 [I-225, (R)-1-(1-(5-(2-(2,5-difluorophenyl)pyrrolidin-1-yl)pyrazolo[1,5-a]pyrimidin-3-yl)-1H-pyrazol-4-yl)ethanone] | > 8.00
19 | Fc1ccc(F)c([C@H]2CCCN2c2ccn3ncc(-n4cc(-c5ccccc5)cn4)c3n2)n1 [I-193] | > 8.00
20 | COc1ccc(-c2cnn(-c3cnn4ccc(N5CCC[C@@H]5c5ncccc5F)nc34)c2)cn1 [I-222] | > 8.00
21 | CC(C)(O)c1cnn(-c2cnn3ccc(N4CCC[C@@H]4c4cc(F)ccc4F)nc23)c1 [I-169] | > 8.00
22 | Fc1cccnc1[C@H]1CCCN1c1ccn2ncc(-n3cc(-c4ccncc4)cn3)c2n1 [I-213] | > 8.00
23 | N#Cc1cnn(-c2cnn3ccc(N4CCC[C@@H]4c4cc(F)ccc4F)nc23)c1 [I-170, (R)-1-(5-(2-(2,5-difluorophenyl)pyrrolidin-1-yl)pyrazolo[J5-a]pyrimidin-3-yl)-1H-pyrazole-4-carbonitrile] | > 8.00

Row | SMILES | pIC50
24 | Fc1ccc(F)c([C@H]2CCCN2c2ccn3ncc(-n4cc(-c5ccncc5F)cn4)c3n2)c1 [I-205] | > 8.00
25 | CS(=O)(=O)c1cnn(-c2cnn3ccc(N4CCC[C@@H]4c4cc(F)ccc4F)nc23)c1 [I-181, (R)-5-(2-(2,5-difluorophenyl)pyrrolidin-1-yl)-3-(4-(methylsulfonyl)-1H-pyrazoI-1-yl)pyrazolo[1,5-a]pyrimidine] | > 8.00
26 | Fc1ccc(F)c([C@H]2CCCN2c2ccn3ncc(-n4cc(C5=CCOCC5)cn4)c3n2)c1 [I-175, (R)-5-(2-(2,5-difluorophenyl)pyrrolidin-1-yl)-3-(4-(3,6-dihydro-2H-pyran-4-yl)-1H-pyrazol-1-yl)pyrazolo[1,5-a]pyrimidine] | > 8.00
27 | Cc1ncc(-c2cnn(-c3cnn4ccc(N5CCC[C@@H]5c5cc(F)ccc5F)nc34)c2)s1 [I-164] | > 8.00
28 | Cc1nn(-c2cnn3ccc(N4CCC[C@@H]4c4cc(F)ccc4F)nc23)cc1-c1ccccc1 [I-151] | > 8.00
29 | Fc1ccc(F)c([C@H]2CCCN2c2ccn3ncc(-n4cc(C(F)(F)F)cn4)c3n2)c1 [I-147] | > 8.00
30 | Fc1ccc(F)c([C@H]2CCCN2c2ccn3ncc(-n4cc(-c5ccc(F)nc5)cn4)c3n2)c1 [I-219, (R)-5-(2-(2,5-difluorophenyl)pyrrolidin-1-yl)-3-(4-(6-fluoropyridin-3-yl)-1H-pyrazol-1-yl)pyrazolo[1,5-a]pyrimidine] | > 8.00
31 | COc1cncc(-c2cnn(-c3cnn4ccc(N5CCC[C@@H]5c5ncccc5F)nc34)c2)c1 [I-211] | > 8.00
32 | O=C(c1cnn(-c2cnn3ccc(N4CCC[C@@H]4c4cc(F)ccc4F)nc23)c1)N1CCOCC1 [I-185, (R)-(1-(5-(2-(2,5-difluoropheiiyl)pyrrolidin-1-yl)pyrazolo[la]pyrimidin-3-yl)-1H-pyrazol-4-yl)(morpholino)methanone] | > 8.00
33 | Cc1cnn(-c2cnn3ccc(N4CCC[C@@H]4c4ncccc4F)nc23)c1 [I-182, (R)-5-(2-(3-fluoropyridin-2-yl)pyrrolidin-1-yl)-3-(4-methyl-1H-pyrazol-1-yl)pyrazolo[1,5-a] pyrimidine] | > 8.00
34 | Cc1cnn(-c2cnn3ccc(N(C)[C@H](C)c4ccccc4)nc23)c1 [I-195, (R)—N-methyl-3-(4-methyl-1H-pyrazol-1-yl)-N-(1-phenylethyl)pyrazolo[1,5-a]pyrimidin-5-amine] | > 8.00
35 | Fc1cccnc1[C@H]1CCCN1c1ccn2ncc(-n3cc(C(F)(F)F)cn3)c2n1 [I-215] | > 8.00
36 | COc1cnccc1-c1cnn(-c2cnn3ccc(N4CCC[C@@H]4c4cc(F)ccc4F)nc23)c1 [I-204] | > 8.00
37 | CCP(=O)(CC)c1cnn(-c2cnn3ccc(N4CCC[C@@H]4c4cc(F)ccc4F)nc23)c1 [I-177] | > 8.00
38 | CN(C)Cc1cnn(-c2cnn3ccc(N4CCC[C@@H]4c4cc(F)ccc4F)nc23)c1 [I-186, (R)-1-(1-(5-(2-(2,5-difluor®phenyl)pyrrolidin-1-yl)pyrazolo[1,5-a]pyrimidin-3-yl)-1H-pyrazol-4-yl)-N,N-dimethylmethanamine] | > 8.00
39 | Fc1ccc(F)c([C@H]2CCCN2c2ccn3ncc(-n4cc(-c5cccnc5F)cn4)c3n2)c1 [I-194] | > 8.00
40 | COc1ccc(-c2cnn(-c3cnn4ccc(N5CCC[C@@H]5c5nc(F)ccc5F)nc34)c2)cn1 [I-221, (R)-5-(2-(3,6-difluoropyridin-2-yl)pyrrolidin-1-yl)-3-(4-(6-methoxypyridin-3-yl)-1H-pyrazol-1-yl)pyrazolo[1,5-a]pyrimidine] | > 8.00
41 | COCc1cnn(-c2cnn3ccc(N4CCC[C@@H]4c4cc(F)ccc4F)nc23)c1 [I-226] | > 8.00
42 | CN(C)C(=O)Nc1cnn(-c2cnn3ccc(N4CCC[C@@H]4c4cc(F)ccc4F)nc23)c1 [I-197] | > 8.00
43 | Fc1ccc(F)c([C@H]2CCCN2c2ccn3ncc(-n4cc(-c5cnccn5)cn4)c3n2)c1 [I-153] | > 8.00
44 | Fc1ccc(F)c([C@H]2CCCN2c2ccn3ncc(-n4cc(-c5ccccc5)cn4)c3n2)c1 [I-149] | > 8.00
45 | NC(=O)c1cnccc1-c1cnn(-c2cnn3ccc(N4CCC[C@@H]4c4cc(F)ccc4F)nc23)c1 [I-203] | > 8.00

Source: patent US12486276B2, “5-(2,5-difluorophenyl)pyrrolidin-1-yl)-3-(1H-pyrazol-1-yl)pyrazolo[1,5-a]pyrimidine derivatives and related compounds as Trk kinase inhibitors for treating cancer” (Pyramid Biosciences, Inc., priority 2017, dated 2025)
